The experiment deals with T1, sodium-proton exchanger of subtype 3 (NHE3) (Homo sapiens, UniProt P48764).
T1 construct: expressed in transfected cells
T1 sequence (P48764 26-834): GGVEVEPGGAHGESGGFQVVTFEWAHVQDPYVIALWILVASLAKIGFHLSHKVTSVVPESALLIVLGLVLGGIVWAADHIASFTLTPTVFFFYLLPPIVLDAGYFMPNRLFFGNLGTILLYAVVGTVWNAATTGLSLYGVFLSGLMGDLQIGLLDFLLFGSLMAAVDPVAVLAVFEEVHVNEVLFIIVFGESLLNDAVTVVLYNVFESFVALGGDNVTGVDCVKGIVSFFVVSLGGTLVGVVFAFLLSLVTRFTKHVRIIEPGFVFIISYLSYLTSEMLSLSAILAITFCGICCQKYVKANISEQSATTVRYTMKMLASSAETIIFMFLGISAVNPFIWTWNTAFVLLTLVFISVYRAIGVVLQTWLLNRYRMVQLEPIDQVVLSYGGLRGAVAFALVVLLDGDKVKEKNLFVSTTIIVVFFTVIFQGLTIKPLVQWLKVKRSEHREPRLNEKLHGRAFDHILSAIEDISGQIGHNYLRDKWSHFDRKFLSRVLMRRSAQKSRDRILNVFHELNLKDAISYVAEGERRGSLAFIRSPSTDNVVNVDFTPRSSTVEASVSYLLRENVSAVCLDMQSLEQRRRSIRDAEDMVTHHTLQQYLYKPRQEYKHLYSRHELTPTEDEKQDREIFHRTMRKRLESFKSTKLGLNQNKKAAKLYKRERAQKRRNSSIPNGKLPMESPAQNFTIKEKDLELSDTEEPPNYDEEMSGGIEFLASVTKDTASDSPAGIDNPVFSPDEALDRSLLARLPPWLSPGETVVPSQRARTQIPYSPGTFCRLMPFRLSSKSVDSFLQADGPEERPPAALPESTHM
The experiment in a line: Recovery of intracellular pH (pHi) after acidification in LAP1 cells stably expressing NHE3 (BCECF fluorescence, FLIPR). In kind it is cell-based.

Where [1] appears, read: LAP1 cells stably expressing NHE3, pH recovery after acidification, range 1 is % inhibition at 10 μM, read-out: Activity range (inhibitory effect on NHE3).

Read-outs that look alike come from different tables or passages of the source.

In the case of `COC[C@@H]1CCCN1[C@H]1Cc2c(Cl)cc(Cl)cc2[C@@H]1Oc1ccc(-n2c(C)nnc2C)cc1` [Example 562, 4-{4-[trans-(1S,2S)-4,6-dichloro-2-((S)-2-methoxymethylpyrrolidin-1-yl)indan-1-yloxy]phenyl}-3,5-dimethyl-4H-[1,2,4]triazole], the IC50 under setting [1] was 1 to 10 µM.
Regarding `N[C@H]1CCCN([C@@H]2Cc3ccccc3[C@H]2Oc2ccc(Br)cc2-c2cc[nH]n2)C1` (racemic) [Example 204, (S)-1-{rac-trans-(1,2)-1-[4-bromo-2-(1H-pyrazol-3-yl)phenoxy]indan-2-yl}piperidin-3-ylamine], the IC50 under setting [1] lay in the range of 1 to 10 µM.
Take `COc1cccc(CC#N)c1O[C@H]1c2ccccc2CC[C@@H]1N1CCC[C@@H](N)C1` (racemic) [Example 229, {2-[rac-trans-(1,2)-2-((R)-3-aminopiperidin-1-yl)-1,2,3,4-tetrahydronaphthalen-1-yloxy]-3-methoxyphenyl}acetonitrile]: the inhibition at 10 µM under setting [1] is 20 to 50%.
As to `CS(=O)(=O)c1ccccc1O[C@H]1c2cc(Cl)cc(Cl)c2C[C@@H]1N1CCC1` [Example 245, 1-[(1S,2S)-4,6-dichloro-1-(2-methanesulfonylphenoxy)indan-2-yl]azetidine], the inhibition at 10 µM under setting [1] was in the range of 20 to 50%.
The same measure, in the same setting: in the case of `CN(C)Cc1ccc(O[C@H]2c3ccccc3CC[C@@H]2N2CCC[C@H](N)C2)cc1` (racemic) [Example 177, (S)-1-[rac-trans-(1,2)-1-(4-dimethylaminomethylphenoxy)-1,2,3,4-tetrahydronaphthalen-2-yl]piperidin-3-ylamine] it was 20 to 50%.
On to `NCC1CCN([C@@H]2Cc3ccccc3[C@H]2Oc2cccc(N3CCNCC3)c2)C1` (mixture of isomers) [Example 617, C-{1-[rac-trans-(1,2)-1-(3-piperazin-1-ylphenoxy)indan-2-yl]pyrrolidin-3-yl}methylamine], for which, under setting [1], the IC50 lay within 1 to 10 µM.
Regarding `O=C1CNC(=O)N1c1ccc(Cl)c(O[C@H]2c3cc(Cl)cc(F)c3C[C@@H]2N2CC[C@@H](O)C2)c1` [Example 438, 3-{4-chloro-3-[(1S,2S)-6-chloro-4-fluoro-2-((R)-3-hydroxypyrrolidin-1-yl)indan-1-yloxy]phenyl}imidazolidine-2,4-dione], the IC50 under setting [1] fell in the range of 1 to 10 µM.
On to `Nc1ccc2c(O[C@H]3c4ccccc4CC[C@@H]3N3CCOCC3)cccc2c1` (racemic) [Example 569, 5-(rac-trans-(1,2)-2-morpholin-4-yl-1,2,3,4-tetrahydronaphthalen-1-yloxy)naphthalen-2-ylamine], for which the inhibition at 10 µM under setting [1] lay in the range of 20 to 50%.
Regarding `Clc1ccc2cccc(O[C@H]3c4ccccc4CC[C@@H]3N3CCOCC3)c2n1` (racemic) [Example 395, 2-chloro-8-(rac-trans-(1,2)-2-morpholin-4-yl-1,2,3,4-tetrahydronaphthalen-1-yloxy)quinoline], the inhibition at 10 µM under setting [1] fell in the range of 20 to 50%.
As for `CC(=O)Nc1cccc(O[C@H]2c3cc(Cl)cc(Cl)c3C[C@@H]2N2CC3CNCC3C2)c1` (mixture of isomers) [Example 689, N-{3-[rac-trans-(1,2)-4,6-dichloro-2-(hexahydropyrrolo[3,4-c]pyrrol-2-yl)indan-1-yloxy]phenyl}acetamide], the IC50 under setting [1] is less than 1 µM.
`Cc1nnc(C)n1-c1ccc(O[C@H]2c3cc(Cl)cc(Cl)c3C[C@@H]2N2CCCC2)cc1` [Example 500, 4-[4-(trans-(1S,2S)-4,6-dichloro-2-pyrrolidin-1-ylindan-1-yloxy)phenyl]-3,5-dimethyl-4H-[1,2,4]triazole]: the IC50 under setting [1] is less than 1 µM.
Turning to `CCOC(=O)c1ncoc1-c1ccc(O[C@H]2c3ccccc3CC[C@@H]2N2CCC[C@@H](N)C2)cc1` (racemic) [Example 583, 5-{4-[rac-trans-(1,2)-2-((R)-3-aminopiperidin-1-yl)-1,2,3,4-tetrahydronaphthalen-1-yloxy]phenyl}oxazole-4-carboxylic acid ethyl ester], the IC50 under setting [1] lay in the range of 1 to 10 µM.
`CS(=O)(=O)c1ccc(O[C@H]2c3cc(Cl)cc(Cl)c3C[C@@H]2N2CC[C@@H](F)C2)cc1` [Example 100, (R)-1-[trans-(1S,2S)-4,6-dichloro-1-(4-methanesulfonylphenoxy)indan-2-yl]-3-fluoropyrrolidine]: the IC50 under setting [1] was less than 1 µM.
Turning to `NS(=O)(=O)c1ccc(OC2c3ccccc3CC2N2CCCC2)c(Cl)c1Cl` (racemic) [Example 357, 2,3-dichloro-4-(rac-trans-(1,2)-2-pyrrolidin-1-ylindan-1-yloxy)benzenesulfonamide], under setting [1], the IC50 was less than 1 µM.
`Fc1ccc(O[C@H]2c3ccccc3CC[C@@H]2N2CCOCC2)c(-c2ccno2)c1` (racemic) [Example 507, 4-[rac-trans-(1,2)-1-(4-fluoro-2-isoxazol-5-ylphenoxy)-1,2,3,4-tetrahydronaphthalen-2-yl]morpholine]: under setting [1], the inhibition at 10 µM was in the range of 20 to 50%.
For `CC(=O)Nc1cccc(O[C@H]2c3cc(Cl)cc(F)c3C[C@@H]2N2CCNCC2)c1` (racemic) [Example 659, N-[3-(rac-trans-(1,2)-6-chloro-4-fluoro-2-piperazin-1-ylindan-1-yloxy)phenyl]acetamide], under setting [1], the IC50 is less than 1 µM.
With `COCCN1CCCN([C@H]2Cc3c(Cl)cc(Cl)cc3[C@@H]2Oc2ccc(-n3c(C)nnc3C)cc2)CC1` [Example 348, 1-{trans-(1S,2S)-4,6-dichloro-1-[4-(3,5-dimethyl-[1,2,4]triazol-4-yl)phenoxy]indan-2-yl}-4-(2-methoxyethyl)-[1,4]diazepane], under setting [1], the IC50 is less than 1 µM.
On to `N#Cc1ccc(O[C@@H]2c3ccccc3C[C@H]2N2CCC(CN)CC2)c(Cl)c1` (racemic) [Example 547, 4-[rac-trans-(1,2)-2-(4-aminomethylpiperidin-1-yl)indan-1-yloxy]-3-chlorobenzonitrile], for which the IC50 under setting [1] is 1 to 10 µM.
Turning to `N[C@H]1CCCN([C@H]2CCc3ccccc3[C@@H]2Oc2ccc3oc(=O)sc3c2)C1` (racemic) [Example 580, 5-[rac-trans-(1,2)-2-((S)-3-aminopiperidin-1-yl)-1,2,3,4-tetrahydronaphthalen-1-yloxy]benzo[1,3]oxathiol-2-one], the inhibition at 10 µM under setting [1] is 20 to 50%.
Same read-out and setting: in the case of `Cc1noc(C)c1-c1ccc(O[C@H]2c3cc(Cl)cc(Cl)c3C[C@@H]2N2CC[C@@H](O)C2)cc1` [Example 135, (R)-1-{trans-(1S,2S)-4,6-dichloro-1-[4-(3,5-dimethylisoxazol-4-yl)phenoxy]indan-2-yl}pyrrolidin-3-ol] it was 20 to 50%; in that of `N[C@H]1CCCN([C@H]2CCc3ccccc3[C@@H]2Oc2ccc3cc[nH]c3c2)C1` (racemic) [Example 148, (S)-1-[rac-trans-(1,2)-1-(1H-indol-6-yloxy)-1,2,3,4-tetrahydronaphthalen-2-yl]piperidin-3-ylamine], 20 to 50%.
For `Cc1nnc(C)n1-c1ccc(O[C@H]2c3cc(Cl)ccc3C[C@@H]2N2CC[C@@H](O)C2)c(F)c1` [Example 143, (R)-1-{trans-(1S,2S)-6-chloro-1-[4-(3,5-dimethyl-[1,2,4]triazol-4-yl)-2-fluorophenoxy]indan-2-yl}pyrrolidin-3-ol], under setting [1], the IC50 was less than 1 µM.
As for `N[C@@H]1CCCN([C@H]2Cc3c(Cl)cc(Cl)cc3[C@@H]2Oc2ccc(-n3ccnc3)cc2)C1` [Example 98, (R)-1-[trans-(1S,2S)-4,6-dichloro-1-(4-imidazol-1-ylphenoxy)indan-2-yl]piperidin-3-ylamine], under setting [1], the IC50 is less than 1 µM.
On the same count and under the same terms, in the case of `CS(=O)(=O)c1ccc(N[C@H]2c3ccccc3C[C@@H]2N2CCCC2)cc1` [Example 707, (4-Methanesulfonyl-phenyl)-((1S,2S)-2-pyrrolidin-1-yl-indan-1-yl)-amine] it was 1 to 10 µM.
Take `Cc1nnc(C)n1-c1ccc(O[C@H]2c3cc(Cl)cc(Cl)c3C[C@@H]2N2CC[C@@](C)(O)C2)cc1` (racemic) [Example 111, (R)-1-{(1S,2S)-4,6-dichloro-1-[4-(3,5-dimethyl-[1,2,4]triazol-4-yl)phenoxy]indan-2-yl}-3-methylpyrrolidin-3-ol]: the IC50 under setting [1] was less than 1 µM.
Turning to `CC(=O)Nc1cccc(O[C@H]2c3cc(Cl)cc(Cl)c3C[C@@H]2N2CCC[C@@H](N)C2)c1` [Example 690, N-{3-[trans-(1S,2S)-2-((R)-3-aminopiperidin-1-yl)-4,6-dichloroindan-1-yloxy]phenyl}acetamide], the IC50 under setting [1] was less than 1 µM.
For the compound `O=C(O[C@H]1c2ccccc2C[C@@H]1N1CCCC1)c1ccc(N2C(=O)CCC2=O)cc1` [Example 458, 4-(2,5-dioxopyrrolidin-1-yl)benzoic acid (1S,2S)-2-pyrrolidin-1-ylindan-1-yl ester], under setting [1], the inhibition at 10 µM is 20 to 50%.
Regarding `CC(=O)Nc1ccccc1OC1c2ccccc2CC1N1CCCC1` (racemic) [Example 635, N-[2-(rac-trans-(1,2)-2-pyrrolidin-1-ylindan-1-yloxy)phenyl]acetamide], under “LAP1, read-out: Activity range (inhibitory effect on NHE3)”, the inhibition at 10 µM lay within 20 to 50%.

Values taken from patent US8822449B2, “Substituted aminoindanes and analogs thereof, and the pharmaceutical use thereof” (Sanofi, priority 2008, dated 2014).
